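Exposure lasted 48 hours, with cells grown in 96-well plates and compounds tested at five concentrations. TGI: total growth inhibition.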
System: OVCAR-5 ovarian
Assay: DTP human tumour cell line panel, 48 h

SMILES	TGI [µM]
Cc1ccc(S(=O)(=O)Nn2c(O)c(C#N)c(-c3ccc([N+](=O)[O-])cc3)c(C#N)c2=O)cc1	> 100
CC(C)[Si](OCC1CC(C#N)OC(C)(C)O1)(C(C)C)C(C)C (centres undefined)	> 100
CC(C)C(NC(=O)C(Cc1ccccc1)NC(=O)[C@H]1CCC[C@H]1NC(=O)C(Cc1ccc(OC(C)(C)C)cc1)NC(=O)OC(C)(C)C)C(N)=O (some centres undefined)	36.2
N#C/C(=C\c1ccc2[nH]ccc2c1)C(=O)c1ccc(O)c(O)c1	> 100
CC(=O)Nc1ccc(-c2nnc(SCC(=O)Nc3ccc(Cl)cc3)o2)cc1	31.6
COc1ccc2c([nH]c3c(O)c(-c4c(C)cc5c([nH]c6c(CC=C(C)C)c(OC)ccc65)c4O)c(C)cc32)c1CC=C(C)C	> 100
COc1ccc(CNc2nc3ccccc3nc2C(=O)O)cc1	> 100
COc1ccc(-n2cnc3c(NC(Cc4ccccc4)C(=O)O)ncnc32)cc1 (centres undefined)	> 100
CC(=O)OCC1OC(n2c(-c3ccccc3)c(N=Nc3ccc(C)cc3)c(C)c(C#N)c2=S)C(OC(C)=O)C(OC(C)=O)C1OC(C)=O (centres undefined)	51.6
CC(C)(C)C1=C(Br)C(OC(=O)C(F)(F)F)(C(C)(C)C)OP1(=O)c1ccccc1 (centres undefined)	> 100
NN/C(=N\S(=O)(=O)c1ccc(S(=O)(=O)c2ccccc2)s1)Nc1ccc(Cl)cc1	> 100
CC(C)(C)[Si](C)(C)OC[C@H](/C=C\CCCC(=O)O)NC1(c2ccccc2)c2ccccc2-c2ccccc21	76.6
CCOC(=O)C(C/C=C/CO)N(C)C(=O)OC(C)(C)C (centres undefined)	> 100
Cc1csc(-n2c(C)nc3cc(Cl)ccc3c2=O)n1	> 100

System: MDA-MB-231 breast
Assay: DTP human tumour cell line panel, 48 h

SMILES	TGI [µM]
COCCN1C(=O)C2c3[nH]c4ccccc4c3C3CCC(C(C)(C)C)CC3C2C1=O (centres undefined)	36.9
O=C(O)c1ccc(N/C(=C(/C(Cl)=C(Cl)Cl)[N+](=O)[O-])n2nnc3ccccc32)cc1	> 100
CCn1c2ccccc2c2cc(Nc3cc(C)[nH]c(=O)n3)ccc21	> 100
C(#Cc1ccccc1)SC1=C(c2ccccc2)S/C(=C(\SC#Cc2ccccc2)c2ccccc2)S1	> 100
COC(=O)c1cc(/C=C\c2cc(OC)ccc2OC)ccc1OC	> 100
CCOC(=O)C(C(=O)COC(C)(C)C)[C@@H]1C=C[C@H](OC(C)=O)C1 (some centres undefined)	> 100
O=C(Cc1ccccc1)NN1C(=O)/C(=C\c2ccccc2O)SC1=Nc1ccccc1	> 100
O=c1[nH]nc(-c2ccccc2)n1-n1cnnc1	> 100
CCCCCCCCCCCCOP(=O)(O)OP(=O)(O)OCC1OC(n2cc(C)c(=O)[nH]c2=O)CC1O (centres undefined)	> 100
O=C1c2cc([N+](=O)[O-])sc2C(=O)c2c([N+](=O)[O-])csc21	2.19
CCOc1cc2c(cc1O)C(N)C[C@@H]1[C@@H]2CC[C@]2(C)[C@@H](O)CC[C@@H]12 (some centres undefined)	> 100
Cc1ccc(S(=O)(=O)Nn2c(O)c(C#N)c(-c3ccc([N+](=O)[O-])cc3)c(C#N)c2=O)cc1	> 100
CC(C)C(NC(=O)C(Cc1ccccc1)NC(=O)[C@H]1CCC[C@H]1NC(=O)C(Cc1ccc(OC(C)(C)C)cc1)NC(=O)OC(C)(C)C)C(N)=O (some centres undefined)	49.5
COc1ccc(CNc2nc3ccccc3nc2C(=O)O)cc1	> 100
COc1ccc(-n2cnc3c(NC(Cc4ccccc4)C(=O)O)ncnc32)cc1 (centres undefined)	> 100
CC(=O)OCC1OC(n2c(-c3ccccc3)c(N=Nc3ccc(C)cc3)c(C)c(C#N)c2=S)C(OC(C)=O)C(OC(C)=O)C1OC(C)=O (centres undefined)	> 100
NN/C(=N\S(=O)(=O)c1ccc(S(=O)(=O)c2ccccc2)s1)Nc1ccc(Cl)cc1	> 100
CC(C)(C)[Si](C)(C)OC[C@H](/C=C\CCCC(=O)O)NC1(c2ccccc2)c2ccccc2-c2ccccc21	39.3
CCOC(=O)C(C/C=C/CO)N(C)C(=O)OC(C)(C)C (centres undefined)	> 100
Cc1csc(-n2c(C)nc3cc(Cl)ccc3c2=O)n1	> 100

System: IGROV1 ovarian
Assay: DTP human tumour cell line panel, 48 h

SMILES	TGI [µM]
COCCN1C(=O)C2c3[nH]c4ccccc4c3C3CCC(C(C)(C)C)CC3C2C1=O (centres undefined)	43.4
O=c1c2ccccc2nc(-c2ccccc2)n1NC(=S)Nc1cccc(Cl)c1	> 100
C(#Cc1ccccc1)SC1=C(c2ccccc2)S/C(=C(\SC#Cc2ccccc2)c2ccccc2)S1	> 100
COC(=O)c1cc(/C=C\c2cc(OC)ccc2OC)ccc1OC	42.2
CCOC(=O)CC(NC(=O)c1ccc(N=NN(C)C)cc1)C(=O)OCC (centres undefined)	> 100
CN(C)CN(C)c1nc(N(C)C)nc(N(C)CN(C)C)n1	> 100
O=C(Cc1ccccc1)NN1C(=O)/C(=C\c2ccccc2O)SC1=Nc1ccccc1	> 100
O=c1[nH]nc(-c2ccccc2)n1-n1cnnc1	> 100
CCCCCCCCCCCCOP(=O)(O)OP(=O)(O)OCC1OC(n2cc(C)c(=O)[nH]c2=O)CC1O (centres undefined)	> 100
O=C1c2cc([N+](=O)[O-])sc2C(=O)c2c([N+](=O)[O-])csc21	1.4
CCOc1cc2c(cc1O)C(N)C[C@@H]1[C@@H]2CC[C@]2(C)[C@@H](O)CC[C@@H]12 (some centres undefined)	> 100
Cc1ccc(S(=O)(=O)Nn2c(O)c(C#N)c(-c3ccc([N+](=O)[O-])cc3)c(C#N)c2=O)cc1	> 100
CC(C)[Si](OCC1CC(C#N)OC(C)(C)O1)(C(C)C)C(C)C (centres undefined)	> 100
CC(C)C(NC(=O)C(Cc1ccccc1)NC(=O)[C@H]1CCC[C@H]1NC(=O)C(Cc1ccc(OC(C)(C)C)cc1)NC(=O)OC(C)(C)C)C(N)=O (some centres undefined)	> 100
N#C/C(=C\c1ccc2[nH]ccc2c1)C(=O)c1ccc(O)c(O)c1	> 100
CC(=O)Nc1ccc(-c2nnc(SCC(=O)Nc3ccc(Cl)cc3)o2)cc1	29.3
COc1ccc2c([nH]c3c(O)c(-c4c(C)cc5c([nH]c6c(CC=C(C)C)c(OC)ccc65)c4O)c(C)cc32)c1CC=C(C)C	> 100
COc1ccc(CNc2nc3ccccc3nc2C(=O)O)cc1	> 100
COc1ccc(-n2cnc3c(NC(Cc4ccccc4)C(=O)O)ncnc32)cc1 (centres undefined)	> 100
CC(C)(C)C1=C(Br)C(OC(=O)C(F)(F)F)(C(C)(C)C)OP1(=O)c1ccccc1 (centres undefined)	> 100
